Assay results from US10278942B2 (PELOTON THERAPEUTICS, INC., priority 2015, dated 2019).

Assays:
[1] = biological target: T1, HIF-2α HIS TAG-PASB Domain (Homo sapiens, UniProt Q99814); test: HIF-2α Scintillation Proximity Assay (SPA); format: binding; details: read-out: Scintillation Proximity Assay IC50
T1 construct: 100 nM HIF-2α HIS TAG-PASB Domain
Procedure, shortened: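 IC50 values rest on percent inhibition, where the sample signal is scaled between high and low controls. Wells contain about 100 μL: compound dispensed as 2 μL of DMSO solution, 88 μL protein-probe mix and 10 μL of beads.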

786-O-Hif-Luc cells = test: Luciferase Assay (HIF responsive elements reporter); details: read-out: Mean Luciferase EC50 (nM), 786-O-Hif-Luc cells
Experimental: A pool of infected cells were then selected against 2 μg/mL of puromycin (P8833, Sigma) for 10 days followed by limited dilution to select single clones. […] Each concentration was tested in triplicate. After about 24 hours, luciferase activity was determined using ONE-Glo Luciferase Assay Reagent (E6110, Promega) following the manufacturer's recommended procedure. EC50 were calculated using Dotmatics software.

T1 sequence (Q99814 240-350 limits assumed): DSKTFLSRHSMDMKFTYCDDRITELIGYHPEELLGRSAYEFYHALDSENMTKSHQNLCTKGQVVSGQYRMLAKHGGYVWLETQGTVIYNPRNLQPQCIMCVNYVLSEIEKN

SMILES | IC50 [1] [nM] | EC50 (786-O-Hif-Luc cells) [nM]
Cc1c(Oc2cc(F)cc(C#N)c2)ccc(S(=O)(=O)C(F)(F)F)c1Cl [Compound 144] | < 50 | 250 to 1000
CC(C)(C#N)COc1ccc(S(C)(=O)=O)c2c1[C@@H](F)C(F)(F)[C@H]2O [Compound 752] | > 1000 | > 1000
N#Cc1cccc(Oc2ccc(S(=O)(=O)C(F)(F)F)cc2Br)c1 [Compound 117] | 50 to 249 | > 1000
C[S+]([O-])c1ccc(Oc2cc(F)cc(C#N)c2)c2c1[C@H](O)C(F)(F)C2 (stereo partly shown) [Compound 272] | > 1000 | > 1000
N#CCC1(COc2ccc(S(=O)(=O)C(F)(F)F)c3c2CC(F)(F)[C@H]3O)COC1 [Compound 707] | 250 to 1000 | 250 to 1000
N#CN=S1(=O)CC(O)c2c1ccc(Oc1cc(F)cc(F)c1)c2C(F)F (stereo not shown) [Compound 394] | > 1000 | > 1000
NC(=O)C1CCc2c(OCC(F)F)ccc(C(F)(F)F)c21 (stereo not shown) [Compound 692] | > 1000 | > 1000
O=S(=O)(c1ccc(OC2CCCCC2)c2c1C(O)CC2)C(F)(F)F (stereo not shown) [Compound 616] | 50 to 249 | 250 to 1000
CS(=O)(=O)c1ccc(Oc2cc(F)cc(C#N)c2)c(C#N)c1Cl [Compound 152] | 250 to 1000 | > 1000
O=S1(=O)c2ccc(Oc3cccc4cn[nH]c34)c(C(F)F)c2C(O)C1(F)F (stereo not shown) [Compound 441] | > 1000 | > 1000
N#Cc1c(Oc2cc(F)cc(F)c2)ccc2c1C(O)C(F)(F)S2(=O)=O (stereo not shown) [Compound 443] | < 50 | 250 to 1000
O=S(=O)(c1ccc(CC2CCCCC2)c2c1C(O)C(F)(F)C2)C(F)(F)F (stereo not shown) [Compound 509] | < 50 | > 1000
N#Cc1cc(F)cc(Oc2ccc(S(=O)(=O)C3CCC3)c3c2CC(F)(F)[C@H]3O)c1 [Compound 209] | 250 to 1000 | > 1000
N#Cc1cc(F)cc(-c2ccc(S(=O)(=O)C(F)(F)F)c3c2CC(F)(F)[C@H]3O)c1 [Compound 486, (S)-3-(2,2-difluoro-1-hydroxy-7((trifluoromethyl)sulfonyl)-2,3-dihydro-1H-inden-4-yl)-5-fluorobenzonitrile] | < 50 | 50 to 249
COc1cc(F)cc(Oc2ccc3c(c2C#N)[C@@H](O)C(F)(F)S3(=O)=O)c1 [Compound 427] | 50 to 249 | > 1000
CC(C)CCOc1ccc(S(=O)(=O)C(F)(F)F)c2c1CC(F)(F)[C@H]2O [Compound 717] | 50 to 249 | 50 to 249
CS(=O)(=O)c1ccc(C(F)(F)CO)c2c1C(O)CC2 (stereo not shown) [Compound 554] | 50 to 249 | > 1000
Cc1c(Oc2cc(F)cc(C#N)c2)ccc(S(=O)(=O)C(F)(F)F)c1CO [Compound 146] | 50 to 249 | 250 to 1000
CC1(C)C[C@@H](O)C[C@@H](c2ccc(S(=O)(=O)C(F)(F)F)c3c2CC(F)(F)[C@H]3O)C1 [Compound 550] | < 50 | 250 to 1000
O=S(=O)(c1ccc(OCC2CC2)c2c1[C@H](O)C(F)(F)C2)C(F)F [Compound 781] | 250 to 1000 | 50 to 249
N#Cc1cc(F)cc(Oc2ccc(S(=O)(=O)CCO)c3c2CC(F)(F)C3O)c1 (stereo not shown) [Compound 250] | > 1000 | > 1000
O=S(=O)(c1ccc(Oc2cc(F)cc(Cl)c2)c(Br)c1/C=N/O)C(F)(F)F [Compound 107] | 50 to 249 | 250 to 1000

SMILES | IC50 [1] [nM] | EC50 (786-O-Hif-Luc cells) [nM]
O=S1(=O)c2ccc(OCc3ccccc3)c(C(F)F)c2C(O)C1(F)F (stereo not shown) [Compound 411] | 250 to 1000 | 250 to 1000
O=S(=O)(c1ccc(Nc2cc(F)cc(F)c2)c2c1[C@H](O)CC2)C(F)(F)F [Compound 531] | 250 to 1000 | 250 to 1000
CCCOc1ccc(S(=O)(=O)C(F)(F)F)c2c1CC(F)(F)C2O (stereo not shown) [Compound 584] | 50 to 249 | < 50
Cc1c(S(C)(=O)=O)ccc(Oc2cc(F)cc(Cl)c2)c1C(F)F [Compound 53] | 250 to 1000 | > 1000
O/N=C1/c2c(C(F)(F)F)ccc(OCCCF)c2[C@@H](F)C1(F)F [Compound 581] | < 50 | > 1000
O=S1(=O)c2ccc(OCC3CC3)c(C(F)F)c2[C@@H](O)C1(F)F [Compound 439] | > 1000 | > 1000
N#Cc1cc(F)cc(Oc2ccc(S(=N)(=O)C(F)(F)F)c3c2CCC3O)c1 (stereo not shown) [Compound 258] | 250 to 1000 | > 1000
O=S(=O)(c1ccc(Oc2cc(F)cc(F)c2)c2c1CCC2)C(F)F [Compound 20] | > 1000 | > 1000
O=S(=O)(c1ccc(Oc2cc(F)c(F)c3[nH]ncc23)c2c1C(O)C(F)(F)C2)C(F)(F)F (stereo not shown) [Compound 261] | 250 to 1000 | > 1000
CC(C)Oc1ccc(S(=O)(=O)C(F)(F)F)c2c1CC(F)(F)C2O (stereo not shown) [Compound 593] | < 50 | 50 to 249
O=C1CCc2c(Oc3cc(F)cc(Cl)c3)ccc(S(=O)(=O)C(F)F)c21 [Compound 18] | 50 to 249 | > 1000
CS(=O)(=O)c1ccc(OC(CF)CF)c2c1[C@H](O)C(F)(F)[C@@H]2F [Compound 762] | 250 to 1000 | 250 to 1000
CS(=O)(=O)c1ccc(OC2CCC2)c2c1[C@H](O)C(F)(F)[C@@H]2F [Compound 753] | < 50 | 250 to 1000
N#Cc1cncc(Nc2ccc(S(=O)(=O)C(F)(F)F)c3c2CC(F)(F)[C@H]3O)c1 [Compound 488, (S)-5-((2,2-difluoro-1-hydroxy-7-((trifluoromethyl)sulfonyl)-2,3-dihydro-1H-inden-4-yl)amino)nicotinonitrile] | 50 to 249 | 50 to 249
O=S(=O)(c1ccc(OCCCO)c2c1C(O)C(F)(F)C2)C(F)(F)F (stereo not shown) [Compound 612] | 250 to 1000 | > 1000
O=S(=O)(c1ccc(OC2CCOCC2)c2c1C(O)C(F)(F)C2)C(F)F (stereo not shown) [Compound 782] | 50 to 249 | 50 to 249
O=S(=O)(c1ccc(Oc2cc(F)cc(Cl)c2)c2c1[C@H](O)CC2)C(F)(F)F [Compound 56] | < 50 | 50 to 249
CS(=O)(=O)c1ccc(O[C@H]2C[C@@H](O)C2)c2c1[C@H](O)C(F)(F)[C@@H]2F [Compound 735] | 250 to 1000 | > 1000
N#Cc1cc(Oc2ccc3c(c2C(F)F)[C@@H](O)C(F)(F)S3(=O)=O)ccc1F [Compound 437] | 50 to 249 | 250 to 1000
N#Cc1cnn(Cc2ccc(S(=O)(=O)C(F)(F)F)c3c2CC(F)(F)[C@H]3O)c1 [Compound 538] | > 1000 | > 1000
O=S1(=O)c2ccc(Oc3ccc(F)c(F)c3)c(C(F)F)c2[C@@H](O)C1(F)F [Compound 436] | < 50 | 50 to 249

More lines, now with the values ahead:

IC50 [1] [nM] | EC50 (786-O-Hif-Luc cells) [nM] | SMILES
> 1000 | > 1000 | N#Cc1cc(F)cc(Oc2ccc3c(c2C#N)C(N)C(F)(F)S3(=O)=O)c1 (stereo not shown) [Compound 464]
250 to 1000 | > 1000 | O=S(=O)(c1ccc(C2CC2)c2c1C(O)C(F)(F)C2)C(F)(F)F (stereo not shown) [Compound 513]
< 50 | > 1000 | Cc1c(Oc2cc(F)cc(Cl)c2)ccc(S(=O)(=O)C(F)(F)F)c1Cl [Compound 143]
250 to 1000 | > 1000 | O=S(=O)(c1ccc(CCO)c2c1[C@H](O)C(F)(F)C2)C(F)(F)F [Compound 496, (S)-2,2-difluoro-4-(2-hydroxyethyl)-7-((trifluoromethyl)sulfonyl)-2,3-dihydro-1H-inden-1-ol]
< 50 | 250 to 1000 | O=S(=O)(c1ccc(Oc2ccc(F)c(Br)c2)c2c1[C@H](O)C(F)(F)C2)C(F)F [Compound 194]
> 1000 | > 1000 | O=S(=O)(c1ccc(Cn2cncn2)c2c1[C@H](O)C(F)(F)C2)C(F)(F)F [Compound 534]
50 to 249 | 250 to 1000 | CS(=O)(=O)c1ccc(Oc2cc(F)cc(F)c2)c(C(F)F)c1C#N [Compound 93]
< 50 | > 1000 | CS(=O)(=O)c1ccc(O[C@H]2C[C@@](F)(C#N)C2)c2c1[C@H](O)C(F)(F)[C@@H]2F [Compound 739]
50 to 249 | 250 to 1000 | CS(=O)(=O)c1ccc(OC[C@@H]2CC2(F)F)c2c1[C@H](O)C(F)(F)[C@@H]2F [Compound 768]
250 to 1000 | > 1000 | CC(O)c1c(S(=O)(=O)C(F)(F)F)ccc(Oc2cc(F)cc(Cl)c2)c1Br (stereo not shown) [Compound 103]
< 50 | 50 to 249 | N[C@@H]1c2c(ccc(Oc3cc(F)cc(F)c3)c2C(F)F)S(=O)(=O)C1(F)F [Compound 401]
250 to 1000 | 250 to 1000 | CS(=O)(=O)c1ccc(Oc2cncc(Cl)c2)c2c1[C@H](O)C(F)(F)C2 [Compound 115]
250 to 1000 | > 1000 | CCCOc1ccc(C(F)(F)F)c2c1CC(F)(F)/C2=N\O [Compound 703]
250 to 1000 | 250 to 1000 | O=S(=O)(c1ccc([C@@H]2CCC[C@H](O)C2)c2c1[C@H](O)C(F)(F)C2)C(F)(F)F [Compound 482, (S)-2,2-difluoro-4-((1R,3S)-3-hydroxycyclohexyl)-7-((trifluoromethyl)sulfonyl)-2,3-dihydro-1H-inden-1-ol]
< 50 | < 50 | O=S(=O)(CF)c1ccc(Oc2cc(F)cc(Cl)c2)c2c1[C@H](O)C(F)(F)C2 [Compound 65]
50 to 249 | 50 to 249 | CS(=O)(=O)c1ccc(Oc2cccc(C#N)c2)c2c1[C@H](O)C(F)(F)C2 [Compound 162]
> 1000 | 250 to 1000 | N#Cc1c(Oc2cc(F)cc(F)c2)ccc2c1C(O)C(F)S2(=O)=O (stereo not shown) [Compound 390]
50 to 249 | > 1000 | N#Cc1cc(F)cc(Oc2ccc(S(=O)(=O)C(F)(F)F)cc2Br)c1 [Compound 118]
50 to 249 | 50 to 249 | OC1c2c(I)ccc(OCC(F)F)c2CC1(F)F (stereo not shown) [Compound 681]
